Source: patent US20240051936A1, “ISOINDOLINONE COMPOUNDS” (Monte Rosa Therapeutics, Inc., priority 2021, published 2024)
Read-outs that look alike come from different tables or passages of the source.

Experiments:
GSPT1 = GSPT1 (Homo sapiens (Human), UniProt P15170+Q96SW2); assay: Immunofluorescence assay for GSPT1 degradation in CAL-Si cells; assay type: cell-based; conditions: CAL-Si cells
Description: The compounds were tested in an immunofluorescence assay for their activity to bind to degrade GSPT1. CAL-Si cells were purchased from DSMZ (cat. Number ACC302), sub-cultured in 90% Dulbecco's MEM (4.5 g/L glucose, Gibco 11965)+10% heat inactivated FBS (BioConcept, 2-01F136I) and incubated at 37° C., 5% CO2. For the assay, imaging microtiterplate Cell Carrier 96 Ultra (Perkin Elmer 6055302) were pre-coated with Fibronectin (Sigma F085, 30 μl at 0.2 μg/ml) in PBS (100 μl, Gibco 14190) for 45 min at room temperature, rinsed with PBS and CAL-Si cells (30K cells/well) were plated and let to adhere overnight. Cells were treated with compounds typically using a serial dilution ranging from 30 μM to 0.1 nM for 6 hours. Compounds were stored at 10 mM DMSO stocks. Vehicle (DMSO), positive (CC-885, 10 μM) and rescue controls (positive control plus 0.2 μM bortezomib) were also included at this stage. Cells were subsequently rinsed with PBS and fixed in 10% Formalin solution (50 μl, Sigma HT5011)) for 20 mins at room temperature. Following three consecutive PBS washes (100 μl), cells were permeabilized in 0.1% Triton X-100 in PBS (Sigma 93443, 50 μl) for 15 mins at room temperature. Following three further PBS washes, 50 μl blocking buffer (1% BSA, Sigma A4503, in PBS) was added for 45 min for signal-to-noise reduction.
Primary antibody (human GSPT1, Sigma HPA052488) was diluted in blocking buffer (dil.1/300, 35 μl/well) and incubated with the cells overnight at 4° C. After three PBS washes, Alexa-fluor 488 coupled secondary antibodies (Invitrogen, A32731, dil.1/1000), Alexa-fluor 647-Phalloïdin (Invitrogen, A22287, dil.1/200) and DAPI (Thermo, #62248, dil.1/1000) were diluted in blocking buffer and incubated with the samples for 2 hours at room temperature. After three final PBS washes, samples were conserved in 100 μl PBS in the dark, until measurement. Image acquisition was performed on the Operetta High-Content Imager (Perkin-Elmer). Fluorescence intensity of Alexa-Fluor 488 (GSPT1), Alexa-Fluor 647 (Actin) and DAPI (Nucleus) were measured. For the determination of GSPT1 DC50 values, a custom algorithm implemented in the PerkinElmer image analysis software Harmony-Acapella® was developed. After user-defined setting of adjustment parameters, the analysis was run identically without human intervention for all image fields. DAPI staining of the nuclei was used to determine the location of cells using standard nuclei detection modules. Segmentation artifacts were removed by threshold-based filters for area, roundness and intensity. The outline of the cells was determined analogously from the sum of the normalized, smoothed DAPI and Actin channel, starting from each nucleus. The Alexa-Fluor 488 (GSPT1) signal intensity in each cell was finally measured, in order to obtain a Mean intensity per cell. GSPT1 degradation (DC50) was calculated after normalization to controls and data import in CDD vault Database, using non-linear regression.

[1] = biological target: Full length wild-type cereblon CRBN (Homo sapiens (Human), UniProt Q96SW2); assay: Fluorescence polarization (FP) assay, cereblon binding
Description: Compound activity was monitored in a fluorescence polarization (FP) homogeneous assay using 1-[5-({2-[2-(2-{[2-(2,6-dioxopiperidin-3-yl)-1,3-dioxo-2,3-dihydro-1H-isoindol-4-yl]oxy}acetamido)ethoxy]ethyl}carbamoyl)pentyl]-3,3-dimethyl-2-[(1E,3E)-5-[(2E)-1,3,3-trimethyl-5-sulfo-2,3-dihydro-1H-indol-2-ylidene]penta-1,3-dien-1-yl]-3H-indol-1-ium-5-sulfonate as a fluorescent probe. Unless otherwise stated, all reagents were purchased from Sigma Aldrich. Enzymatic reactions were conducted in Perkin-Elmer Black 384 well ProxiPlate Plus (catalogue no. 6008269) in 10 sL total volume. Full length wild-type cereblon CRBN (80.0 nM, 10 sL) was incubated in assay buffer containing 20 mM HEPES (pH 8.0), […], 0.5 mM TCEP and 0.05% Tween 20 in the presence or absence of compound (300 nL). Inhibitors were stored as 10 mM DMSO stocks in an inert environment (low humidity, dark, low oxygen, room temperature) using the Storage Pod System.
Compounds and DMSO were dispensed using the Echo E5XX (Labcyte Inc. USA) to give concentrations from 300 to 0.937 or 3000 to 9.3 nM in a 12 data point curve. […] Following incubation at room temperature for 30 min, the assay was initiated by dispensing the probe to a final concentration of 5 nM (2.5 nL of a 20 μM stock) using the Echo E5XX. FP was measured after a period of 12 hours using a Pherastar plate reader (BMG Labtech, Germany) exciting at 590 nm and measuring the amount of parallel and perpendicular light at 675 nm. The FP signal was subsequently normalized to the no-compound control (i.e., DMSO). Analysis and IC50 values were derived using Dotmatics (Dotmatics UK) software.

[2] = treated 6 hours, read-out: Code, activity for GSPT1 degradation (DC50)
[3] = compounds with code A, read-out: DC50 value code
[4] = cereblon binding, bound, read-out: IC50 value
[5] = wild-type CRBN 80.0 nM, probe 5 nM, FP measured after 12 hours, read-out: rFP IC50

Sequence of Full length wild-type cereblon CRBN (Q96SW2 whole entry): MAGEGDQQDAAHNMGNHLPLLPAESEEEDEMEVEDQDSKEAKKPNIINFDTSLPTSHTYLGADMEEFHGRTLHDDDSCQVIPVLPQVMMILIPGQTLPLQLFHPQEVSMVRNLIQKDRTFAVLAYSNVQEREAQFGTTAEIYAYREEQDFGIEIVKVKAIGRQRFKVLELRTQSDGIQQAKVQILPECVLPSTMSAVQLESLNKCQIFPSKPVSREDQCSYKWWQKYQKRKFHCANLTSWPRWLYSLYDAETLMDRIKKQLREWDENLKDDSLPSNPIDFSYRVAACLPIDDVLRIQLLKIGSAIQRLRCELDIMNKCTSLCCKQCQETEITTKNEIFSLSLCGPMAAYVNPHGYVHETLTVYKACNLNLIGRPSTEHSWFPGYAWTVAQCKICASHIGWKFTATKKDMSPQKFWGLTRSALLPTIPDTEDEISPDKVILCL
Sequence of GSPT1 (P15170 whole entry): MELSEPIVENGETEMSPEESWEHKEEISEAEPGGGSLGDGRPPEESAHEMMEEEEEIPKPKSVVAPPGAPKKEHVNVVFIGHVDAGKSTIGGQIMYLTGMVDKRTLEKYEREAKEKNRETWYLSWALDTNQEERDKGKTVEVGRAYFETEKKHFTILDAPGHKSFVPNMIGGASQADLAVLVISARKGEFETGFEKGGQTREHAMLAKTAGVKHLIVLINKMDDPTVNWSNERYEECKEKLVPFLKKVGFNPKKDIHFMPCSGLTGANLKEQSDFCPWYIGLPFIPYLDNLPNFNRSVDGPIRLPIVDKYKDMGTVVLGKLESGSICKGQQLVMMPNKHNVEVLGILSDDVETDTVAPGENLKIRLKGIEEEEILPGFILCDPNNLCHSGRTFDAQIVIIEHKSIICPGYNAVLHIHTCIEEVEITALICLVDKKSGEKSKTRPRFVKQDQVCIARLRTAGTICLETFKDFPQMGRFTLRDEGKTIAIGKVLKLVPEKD
Sequence of GSPT1 (Q96SW2 whole entry): as the sequence (Q96SW2 whole entry) above
Sequence of GSPT1 (Q16531 whole entry partner): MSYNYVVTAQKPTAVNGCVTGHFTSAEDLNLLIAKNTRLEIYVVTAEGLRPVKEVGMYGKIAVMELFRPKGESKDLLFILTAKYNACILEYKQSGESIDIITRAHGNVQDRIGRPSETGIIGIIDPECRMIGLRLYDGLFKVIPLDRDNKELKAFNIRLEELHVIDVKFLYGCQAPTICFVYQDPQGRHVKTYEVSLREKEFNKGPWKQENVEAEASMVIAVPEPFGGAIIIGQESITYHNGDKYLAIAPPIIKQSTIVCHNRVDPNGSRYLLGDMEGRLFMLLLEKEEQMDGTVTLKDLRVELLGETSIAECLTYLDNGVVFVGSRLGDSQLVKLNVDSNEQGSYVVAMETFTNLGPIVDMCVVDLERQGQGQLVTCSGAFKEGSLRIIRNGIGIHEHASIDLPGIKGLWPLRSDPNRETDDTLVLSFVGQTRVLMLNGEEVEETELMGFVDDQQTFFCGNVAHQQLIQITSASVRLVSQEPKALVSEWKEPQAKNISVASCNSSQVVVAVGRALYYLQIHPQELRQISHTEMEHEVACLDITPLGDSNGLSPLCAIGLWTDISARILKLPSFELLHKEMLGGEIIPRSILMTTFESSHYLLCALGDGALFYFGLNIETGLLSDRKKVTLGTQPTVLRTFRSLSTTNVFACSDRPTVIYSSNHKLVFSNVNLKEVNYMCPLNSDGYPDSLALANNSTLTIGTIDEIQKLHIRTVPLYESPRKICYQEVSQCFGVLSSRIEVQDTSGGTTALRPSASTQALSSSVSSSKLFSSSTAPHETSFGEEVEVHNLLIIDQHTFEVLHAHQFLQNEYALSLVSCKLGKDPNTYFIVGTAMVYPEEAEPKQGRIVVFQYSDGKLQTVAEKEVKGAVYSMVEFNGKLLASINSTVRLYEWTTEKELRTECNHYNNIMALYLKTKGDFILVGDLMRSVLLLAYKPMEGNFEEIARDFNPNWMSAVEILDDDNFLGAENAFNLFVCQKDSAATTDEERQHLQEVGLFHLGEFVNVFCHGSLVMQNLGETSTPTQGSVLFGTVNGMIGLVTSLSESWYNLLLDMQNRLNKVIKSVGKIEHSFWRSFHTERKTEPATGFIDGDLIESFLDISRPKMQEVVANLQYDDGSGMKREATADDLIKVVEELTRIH

DC50 (GSPT1; [2]) [nM]	IC50 [1, 4] [nM]	IC50 [1, 5] [nM]	Compound	DC50 (GSPT1; [3]) [nM]
30 to 300			Cc1cc(F)cc(NC(=O)OCc2cc(F)c3c(c2)C(=O)N(C2CCC(=O)NC2=O)C3)c1 (stereo not drawn) [Compound 63, (2-(2,6-dioxopiperidin-3-yl)-7-fluoro-3-oxoisoindolin-5-yl)methyl (3-fluoro-5-methylphenyl)carbamate]	
30 to 300			Cc1cc(F)c(NC(=O)OCc2cc(F)c3c(c2)C(=O)N(C2CCC(=O)NC2=O)C3)cc1Cl (stereo not drawn) [Compound 64, (2-(2,6-dioxopiperidin-3-yl)-7-fluoro-3-oxoisoindolin-5-yl)methyl(5-chloro-2-fluoro-4-methylphenyl)carbamate]	
	< 1200		CC1(C)COc2cc(NC(=O)OCc3cc(F)c4c(c3)C(=O)N(C3CCC(=O)NC3=O)C4)ccc21 (stereo not drawn) [Compound 17, (2-(2,6-dioxopiperidin-3-yl)-7-fluoro-3-oxoisoindolin-5-yl)methyl(3,3-dimethyl-2,3-dihydrobenzofuran-6-yl) carbamate]	
	< 600		C[C@@H]1CCCN1c1ccc(NC(=O)OCc2cc(F)c3c(c2)C(=O)N(C2CCC(=O)NC2=O)C3)cn1 (stereo partly drawn) [Compound 23, (2-(2,6-dioxopiperidin-3-yl)-7-fluoro-3-oxoisoindolin-5-yl)methyl (6-((R)-2-methylpyrrolidin-1-yl)pyridin-3-yl)carbamate]	
30 to 300			O=C1CCC(N2Cc3c(F)cc(COC(=O)Nc4cc(OC(F)(F)F)ccc4F)cc3C2=O)C(=O)N1 (stereo not drawn) [Compound 65, (2-(2,6-dioxopiperidin-3-yl)-7-fluoro-3-oxoisoindolin-5-yl)methyl (2-fluoro-5-(trifluoromethoxy)phenyl) carbamate]	
	< 600		Cc1cc(Cl)cc(NC(=O)OCc2cc(F)c3c(c2)C(=O)N(C2CCC(=O)NC2=O)C3)c1 (stereo not drawn) [Compound 27, (2-(2,6-dioxopiperidin-3-yl)-7-fluoro-3-oxoisoindolin-5-yl)methyl(3-chloro-5-methylphenyl)carbamate]	
	< 600		COc1cc(COC(=O)Nc2ccc(F)c(OC(F)(F)F)c2)cc2c1CN(C1CCC(=O)NC1=O)C2=O (stereo not drawn) [Compound 39, (2-(2,6-dioxopiperidin-3-yl)-7-methoxy-3-oxoisoindolin-5-yl)methyl(4-fluoro-3-(trifluoromethoxy)phenyl) carbamate]	
	< 600		CC(C)(C)c1ccc(NC(=O)OCc2cc(F)c3c(c2)C(=O)N(C2CCC(=O)NC2=O)C3)cn1 (stereo not drawn) [Compound 9, (2-(2,6-dioxopiperidin-3-yl)-7-fluoro-3-oxoisoindolin-5-yl)methyl(6-(tert-butyl)pyridin-3-yl)carbamate]	

Further lines, the compound ahead of its results:

Compound	DC50 (GSPT1; [2]) [nM]	IC50 [1, 4] [nM]	IC50 [1, 5] [nM]	DC50 (GSPT1; [3]) [nM]
COc1cc(COC(=O)Nc2cc(Cl)cc(OC(F)F)c2)cc2c1CN(C1CCC(=O)NC1=O)C2=O (stereo not drawn) [Compound 49, (2-(2,6-dioxopiperidin-3-yl)-7-methoxy-3-oxoisoindolin-5-yl)methyl (3-chloro-5-(difluoromethoxy)phenyl)carbamate]	< 30	< 600	600 to 1200	< 30
COc1cc(COC(=O)Nc2ccc(-c3ccccn3)cc2)cc2c1CN(C1CCC(=O)NC1=O)C2=O (stereo not drawn) [Compound 42, (2-(2,6-dioxopiperidin-3-yl)-7-methoxy-3-oxoisoindolin-5-yl)methyl (4-(pyridin-2-yl)phenyl)carbamate]	< 30	< 600	600 to 1200	< 30
O=C1CCC(N2Cc3c(F)cc(COC(=O)Nc4ccc(-c5ccccc5)nc4)cc3C2=O)C(=O)N1 (stereo not drawn) [Compound 8, (2-(2,6-dioxopiperidin-3-yl)-7-fluoro-3-oxoisoindolin-5-yl)methyl(6-phenylpyridin-3-yl)carbamate]	< 30		> 1900	< 30
COc1cc(COC(=O)Nc2cc(F)cc(OC(F)(F)F)c2)cc2c1CN(C1CCC(=O)NC1=O)C2=O (stereo not drawn) [Compound 41, (2-(2,6-dioxopiperidin-3-yl)-7-methoxy-3-oxoisoindolin-5-yl)methyl (3-fluoro-5-(trifluoromethoxy)phenyl) carbamate]	30 to 300	< 600	1200 to 1900	
COc1cc(COC(=O)Nc2ccc(N3CCCCC3C)nc2)cc2c1CN(C1CCC(=O)NC1=O)C2=O (stereo not drawn) [Compound 38, (2-(2,6-dioxopiperidin-3-yl)-7-methoxy-3-oxoisoindolin-5-yl)methyl(6-(2-methylpiperidin-1-yl)pyridin-3-yl)carbamate]	< 30	< 600	≤ 600	< 30
COc1cc(COC(=O)Nc2ccc3c(c2)OCC3(C)C)cc2c1CN(C1CCC(=O)NC1=O)C2=O (stereo not drawn) [Compound 37, (2-(2,6-dioxopiperidin-3-yl)-7-methoxy-3-oxoisoindolin-5-yl) methyl(3,3-dimethyl-2,3-dihydrobenzofuran-6-yl)carbamate]	< 30	< 1200		< 30
COc1cc(COC(=O)Nc2ccc(C3CCC3)cc2)cc2c1CN(C1CCC(=O)NC1=O)C2=O (stereo not drawn) [Compound 57, (2-(2,6-dioxopiperidin-3-yl)-7-methoxy-3-oxoisoindolin-5-yl)methyl(4-cyclobutylphenyl) carbamate]		< 1200		
Cc1cc(NC(=O)OCc2cc(F)c3c(c2)C(=O)N(C2CCC(=O)NC2=O)C3)cnc1-c1ccccc1 (stereo not drawn) [Compound 20, (2-(2,6-dioxopiperidin-3-yl)-7-fluoro-3-oxoisoindolin-5-yl)methyl(5-methyl-6-phenylpyridin-3-yl)carbamate]		< 600		
COc1cc(COC(=O)Nc2ccc(N3CCCC3C)nc2)cc2c1CN(C1CCC(=O)NC1=O)C2=O (stereo in doubt) [Compound 62, (2-(2,6-dioxopiperidin-3-yl)-7-methoxy-3-oxoisoindolin-5-yl)methyl (6-((R)-2-methylpyrrolidin-1-yl)pyridin-3-yl)carbamate]		< 600	≤ 600	
COc1cc(COC(=O)Nc2cc(F)cc(OC(F)F)c2)cc2c1CN(C1CCC(=O)NC1=O)C2=O (stereo not drawn) [Compound 47, (2-(2,6-dioxopiperidin-3-yl)-7-methoxy-3-oxoisoindolin-5-yl)methyl(3-(difluoromethoxy)-5-fluorophenyl) carbamate]		< 600		
COc1cc(COC(=O)Nc2cc(Cl)c(C)cc2F)cc2c1CN(C1CCC(=O)NC1=O)C2=O (stereo not drawn) [Compound 68, (2-(2,6-dioxopiperidin-3-yl)-7-methoxy-3-oxoisoindolin-5-yl)methyl (5-chloro-2-fluoro-4-methylphenyl)carbamate]	> 300			
Cc1ccc(NC(=O)OCc2ccc3c(c2C)C(=O)N(C2CCC(=O)NC2=O)C3)cc1Cl (stereo not drawn) [Compound 73, (2-(2,6-dioxopiperidin-3-yl)-4-methyl-3-oxoisoindolin-5-yl)methyl(3-chloro-4-methylphenyl)carbamate]			≤ 600	
